Data reported in ChEMBL document CHEMBL1128940, “Dual inhibition of angiotensin-converting enzyme and neutral endopeptidase by tricyclic benzazepinone thiols” (Bioorg Med Chem Lett, 1996).

What was measured:
[1] = target: Angiotensin-converting enzyme (Homo sapiens, UniProt P12821+Q9BYF1); assay: Inhibition of Angiotensin I converting enzyme; type: protein assay
Neprilysin = Neprilysin (Homo sapiens, UniProt P08473); assay: Inhibition of neutral endopeptidase
Neprilysin, sequence (P08473 whole entry): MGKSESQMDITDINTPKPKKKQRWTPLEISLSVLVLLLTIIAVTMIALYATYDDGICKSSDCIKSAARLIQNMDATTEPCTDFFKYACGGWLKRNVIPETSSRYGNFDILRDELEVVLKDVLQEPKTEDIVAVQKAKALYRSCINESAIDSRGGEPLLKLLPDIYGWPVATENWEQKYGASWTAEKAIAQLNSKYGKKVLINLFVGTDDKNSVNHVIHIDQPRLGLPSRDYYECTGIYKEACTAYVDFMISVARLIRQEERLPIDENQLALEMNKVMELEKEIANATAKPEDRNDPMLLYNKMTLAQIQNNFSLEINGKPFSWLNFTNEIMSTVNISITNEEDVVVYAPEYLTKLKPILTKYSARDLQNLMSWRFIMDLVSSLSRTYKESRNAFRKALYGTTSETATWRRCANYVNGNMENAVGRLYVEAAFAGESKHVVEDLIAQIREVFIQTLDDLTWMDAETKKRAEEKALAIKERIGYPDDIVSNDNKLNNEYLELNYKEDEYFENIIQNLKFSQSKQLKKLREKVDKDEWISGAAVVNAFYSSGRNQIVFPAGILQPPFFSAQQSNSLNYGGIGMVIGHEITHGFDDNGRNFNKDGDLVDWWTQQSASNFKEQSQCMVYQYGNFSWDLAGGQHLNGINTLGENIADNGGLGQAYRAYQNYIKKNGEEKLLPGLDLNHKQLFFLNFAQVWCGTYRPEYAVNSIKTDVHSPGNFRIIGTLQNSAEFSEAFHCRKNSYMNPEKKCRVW

| IC50 [1] [nM] | IC50 (Neprilysin) [nM] | Compound |
| --- | --- | --- |
| 165 | > 1000 | C[C@H](S)C(=O)NC1CCc2cccc3c2N(C1=O)[C@H](C(=O)O)C3 (some centres not stated) |
| 62 | > 1000 | O=C(N[C@@H]1CCc2cccc3c2N(C1=O)[C@H](C(=O)O)C3)[C@@H](S)Cc1ccccc1 |
| 40 | 48 | O=C(N[C@H]1CCc2cccc3c2N(C1=O)[C@H](C(=O)O)C3)[C@@H](S)Cc1ccccc1 |
| > 1000 | 505 | O=C(O)[C@@H]1Cc2cccc3c2N1C(=O)C(NC(=O)C1(S)Cc2ccccc2C1)CC3 (some centres not stated) |
| 283 | 83 | O=C(NC1CCc2cccc3c2N(C1=O)[C@H](C(=O)O)C3)[C@H](S)Cc1ccccc1 (some centres not stated) |
| 89 | > 1000 | O=C(NC1CCc2cccc3c2N(C1=O)[C@H](C(=O)O)C3)[C@@H](S)Cc1ccc(-c2ccccc2)cc1 (some centres not stated) |
| 41 | > 1000 | CC[C@@H](C)[C@H](S)C(=O)NC1CCc2cccc3c2N(C1=O)[C@H](C(=O)O)C3 (some centres not stated) |
| < 100 | > 1000 | O=C(NC1CCc2cccc3c2N(C1=O)[C@H](C(=O)O)C3)[C@@H](S)C1CCCCC1 (some centres not stated) |
| > 1000 | > 1000 | CC(C)(S)C(=O)NC1CCc2cccc3c2N(C1=O)[C@H](C(=O)O)C3 (some centres not stated) |
| 30 | 940 | CC(C)[C@H](S)C(=O)NC1CCc2cccc3c2N(C1=O)[C@H](C(=O)O)C3 (some centres not stated) |
| – | > 1000 | O=C(CS)NC1CCc2cccc3c2N(C1=O)[C@H](C(=O)O)C3 (some centres not stated) |
| 253 | > 1000 | O=C(O)[C@@H]1Cc2cccc3c2N1C(=O)C(NC(=O)C1(S)CCCC1)CC3 (some centres not stated) |
| 77 | 15 | O=C(N[C@H]1CCc2cccc3c2N(C1=O)[C@H](C(=O)O)C3)C(CS)Cc1ccc(-c2ccccc2)cc1 (stereo in doubt; 4m (S)) |
| 1120 | 12 | O=C(N[C@H]1CCc2cccc3c2N(C1=O)[C@H](C(=O)O)C3)C(CS)Cc1ccc(-c2ccccc2)cc1 (stereo in doubt; 4n (S)) |
